Data from US10874103B2, “Antibacterial composition comprising an acetal or a long-chain alkyl hexitane ether” (TEREOS STARCH & SWEETENERS BELGIUM, priority 2014, dated 2020).
Like-named read-outs stand apart in the source and are kept apart here.

Legend:
[1] = Critical micelle concentration (surfactant properties, Example 6); type: physicochemical
From the text: The physical, chemical and antimicrobial properties for the best products synthesized have been tested. These analyses show the different surfactant profiles, and the minimum inhibitory concentrations (MIC) for each compound on Gram-positive bacteria. The best surfactant and antimicrobial results are compared in Table 3.

[2] = system: Enterococci: E. faecalis strains; assay: MIC microdilution on wider panel (Example 8), E. faecalis strains; type: cell-based
Procedure: The cultures studied, freshly isolated (after incubation on a blood agar at 37° C. for 18 h), are taken up in sterile water (10 mL) until a 0.5 McFarland (Mc) suspension i.e. at 1 to 2×10^8 CFU (bacteria)/cm^3 is obtained. The bacterial suspension was then diluted to obtain a final concentration of 1×10^6 CFU/cm^3. Each well contains an identical quantity of Mueller-Hinton medium (a rich medium for bacterial culture) and bacteria with final 0.5×10^6 CFU/cm^3. The test compounds of interest are solubilized in ethanol or DMSO at 25 mg/mL before being diluted to different concentrations two by two. On the multiwell plate, a first series has been planned comprising the culture medium without the test compound of interest. It corresponds to the growth control (control well). These controls serve as reference for comparing bacterial growth with that of the subsequent wells comprising different concentrations of the test compound of interest. The second series of wells comprises the mother solution for the test compound of interest for a concentration in the wells of 256 mg (7 mM). Each series of wells was diluted two by two until the last series for a final concentration of 0.25 mg/L (0.0007 mM). Each concentration is duplicated in the same plate. The plate is incubated for 18 h at 37° C. […] If there is antibacterial activity, the bacterial growth is inhibited, which means that no turbidity or bacterial residue is present. The minimum inhibitory concentrations (MIC) are tested on Gram-positive bacterial strains according to the recommendations of the “Clinical Laboratory Standards Institute” (Clinical-Laboratory-Standards-Institute, 6th ed. Approved standard M100-S17. CLSI, Wayne, Pa., 2007). The clinical strains have been isolated in the Hospice de Lyon. […]

**Q.** What does the source list for Dodecyl-1,4-d-sorbitan [Example 2e]?
**A.** CMC (critical micelle concentration) [1]: 0.091 mM; CMC (critical micelle concentration) ([1]; listed as Sorbitan dodecyl ether): 0.09 mM; Minimum inhibitory concentration (MIC) ATCC 29212 ([2]; E. faecalis ATCC 29212): 8 µg/mL; Minimum inhibitory concentration (MIC) 1801 ([2]; clinical E. faecalis from urines, strain 015205261801): 8 µg/mL; Minimum inhibitory concentration (MIC) 9901 ([2]; clinical E. faecalis from urines, strain 015206179901): 16 µg/mL
